Source: paper PMC10175918 (Communications Biology, 2023)
Where two headings read alike, the source gives them in different places.

Key:
Test in all cases: TGFα-shedding assay-based GPCR screening with chimeric Gα subunit proteins
Type in all cases: cell-based
348 GPCRs [1] = biological target: T1, 348 GPCRs (Homo sapiens, UniProt P16473); settings: 10µM, Favipiravir 100μM
T1 construct: expressed in transfected cells; host or cells: HEK293A

348 GPCRs [2] = biological target: T2, 348 GPCRs (Homo sapiens, UniProt Q9NSD7); settings: RXFP3 (relaxin/insulin-like family peptide receptor 3); 10µM, Favipiravir 100μM
T2 construct: expressed in transfected cells; host or cells: HEK293A
T2 sequence (Q9NSD7 1-469): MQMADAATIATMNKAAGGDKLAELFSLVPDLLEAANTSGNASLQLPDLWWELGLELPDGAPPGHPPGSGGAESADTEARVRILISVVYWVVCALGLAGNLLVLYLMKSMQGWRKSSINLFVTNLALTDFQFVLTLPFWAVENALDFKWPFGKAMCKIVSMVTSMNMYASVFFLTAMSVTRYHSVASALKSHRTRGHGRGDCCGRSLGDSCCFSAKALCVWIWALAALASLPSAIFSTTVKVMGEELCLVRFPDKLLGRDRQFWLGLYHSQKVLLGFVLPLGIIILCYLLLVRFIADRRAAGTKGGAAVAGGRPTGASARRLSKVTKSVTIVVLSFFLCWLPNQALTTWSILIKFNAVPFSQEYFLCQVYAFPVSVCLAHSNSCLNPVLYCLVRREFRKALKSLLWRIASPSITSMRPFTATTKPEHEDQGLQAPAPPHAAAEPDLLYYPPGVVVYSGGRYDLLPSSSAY

348 GPCRs [3] = biological target: T3, 348 GPCRs (Homo sapiens, UniProt O60755); settings: 10µM, Favipiravir 100μM
T3 construct: expressed in transfected cells; host or cells: HEK293A
T3 sequence (O60755 1-368): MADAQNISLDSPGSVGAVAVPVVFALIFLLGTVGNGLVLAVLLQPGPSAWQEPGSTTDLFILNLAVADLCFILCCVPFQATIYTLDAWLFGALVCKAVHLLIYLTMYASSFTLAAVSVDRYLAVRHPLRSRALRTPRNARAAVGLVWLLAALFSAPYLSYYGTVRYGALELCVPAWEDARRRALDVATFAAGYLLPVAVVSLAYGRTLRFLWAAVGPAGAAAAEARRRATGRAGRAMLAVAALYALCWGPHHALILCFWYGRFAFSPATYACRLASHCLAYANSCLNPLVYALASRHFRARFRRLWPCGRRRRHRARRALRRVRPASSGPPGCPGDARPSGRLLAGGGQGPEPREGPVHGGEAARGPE

348 GPCRs [4] = biological target: 348 GPCRs (Homo sapiens, UniProt P41143); settings: read-out: % GPCR activation compared to TPA, OPRD1 (opioid receptor, delta 1 (DOR)); 10µM, Favipiravir 100μM
348 GPCRs [5] = biological target: T4, 348 GPCRs (Homo sapiens, UniProt P47775)
T4 construct: expressed in transfected cells; host or cells: HEK293A
T4 sequence (P47775 1-334): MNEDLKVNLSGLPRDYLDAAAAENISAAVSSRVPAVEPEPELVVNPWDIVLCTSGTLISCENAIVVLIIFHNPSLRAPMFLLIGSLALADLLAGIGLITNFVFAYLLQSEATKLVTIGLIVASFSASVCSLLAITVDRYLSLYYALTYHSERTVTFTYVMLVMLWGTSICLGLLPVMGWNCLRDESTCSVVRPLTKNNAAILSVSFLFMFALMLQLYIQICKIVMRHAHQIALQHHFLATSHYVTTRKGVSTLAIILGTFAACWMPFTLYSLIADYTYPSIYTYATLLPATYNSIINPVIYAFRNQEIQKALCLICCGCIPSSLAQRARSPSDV

348 GPCRs [6] = biological target: T5, 348 GPCRs (Homo sapiens, UniProt P23945); settings: 10µM, Favipiravir 100μM
T5 construct: expressed in transfected cells; host or cells: HEK293A
T5 sequence (P23945 18-695): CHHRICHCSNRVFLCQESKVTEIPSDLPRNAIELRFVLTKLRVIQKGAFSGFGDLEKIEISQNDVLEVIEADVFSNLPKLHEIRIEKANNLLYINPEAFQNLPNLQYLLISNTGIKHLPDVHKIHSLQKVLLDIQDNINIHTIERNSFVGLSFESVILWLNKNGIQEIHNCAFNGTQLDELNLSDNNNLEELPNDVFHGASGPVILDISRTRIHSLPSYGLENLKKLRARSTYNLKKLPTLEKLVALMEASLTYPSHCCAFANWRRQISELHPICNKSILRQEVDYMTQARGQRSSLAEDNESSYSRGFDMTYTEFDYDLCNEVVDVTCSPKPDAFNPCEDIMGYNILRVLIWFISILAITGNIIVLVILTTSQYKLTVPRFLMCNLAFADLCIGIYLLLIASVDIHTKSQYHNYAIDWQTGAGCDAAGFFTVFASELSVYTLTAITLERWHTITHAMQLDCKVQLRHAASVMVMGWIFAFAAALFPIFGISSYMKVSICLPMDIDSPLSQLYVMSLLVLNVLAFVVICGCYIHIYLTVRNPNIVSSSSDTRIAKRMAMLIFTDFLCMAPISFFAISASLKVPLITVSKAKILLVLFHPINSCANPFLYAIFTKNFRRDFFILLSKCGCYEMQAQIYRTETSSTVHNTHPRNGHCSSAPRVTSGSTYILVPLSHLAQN

348 GPCRs [7] = biological target: 348 GPCRs (Homo sapiens, UniProt P21453); settings: 10µM, Favipiravir 100μM
348 GPCRs [8] = biological target: T6, 348 GPCRs (Homo sapiens, UniProt Q9NZD1); settings: 10µM, Favipiravir 100μM
T6 construct: expressed in transfected cells; host or cells: HEK293A

[9] = TSHR (thyroid stimulating hormone receptor), read-out: % GPCR activation compared to TPA
[10] = GALR3 (galanin receptor 3), read-out: % GPCR activation compared to TPA
[11] = GPCR GPR12 (G protein-coupled receptor 12), read-out: % GPCR activation compared to TPA
[12] = FSHR (follicle stimulating hormone receptor), read-out: % GPCR activation compared to TPA
[13] = S1PR1 (sphingosine-1-phosphate receptor 1), read-out: % GPCR activation compared to TPA
[14] = GPRC5D (G protein-coupled receptor class C group 5 member D), read-out: % GPCR activation compared to TPA
[15] = read-out: % GPCR activation compared to TPA, TSHR (thyroid stimulating hormone receptor)
[16] = read-out: % GPCR activation compared to TPA, GALR3 (galanin receptor 3)
[17] = read-out: % GPCR activation compared to TPA, GPCR GPR12 (G protein-coupled receptor 12)
[18] = read-out: % GPCR activation compared to TPA, FSHR (follicle stimulating hormone receptor)
[19] = read-out: % GPCR activation compared to TPA, S1PR1 (sphingosine-1-phosphate receptor 1)
[20] = read-out: % GPCR activation compared to TPA, GPRC5D (G protein-coupled receptor class C group 5 member D)

Chain of 348 GPCRs (Homo sapiens, UniProt P21453) (P21453 whole entry): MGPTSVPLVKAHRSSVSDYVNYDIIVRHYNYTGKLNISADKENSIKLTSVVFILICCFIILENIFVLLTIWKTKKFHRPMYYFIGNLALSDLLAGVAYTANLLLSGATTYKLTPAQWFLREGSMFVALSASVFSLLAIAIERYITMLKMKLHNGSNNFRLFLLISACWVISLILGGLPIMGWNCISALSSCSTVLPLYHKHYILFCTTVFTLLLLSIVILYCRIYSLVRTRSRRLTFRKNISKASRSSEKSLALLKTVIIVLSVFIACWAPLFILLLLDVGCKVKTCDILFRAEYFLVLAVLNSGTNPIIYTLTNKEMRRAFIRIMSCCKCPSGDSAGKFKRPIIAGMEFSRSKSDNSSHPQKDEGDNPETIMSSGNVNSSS
T6 sequence (Q9NZD1 whole entry): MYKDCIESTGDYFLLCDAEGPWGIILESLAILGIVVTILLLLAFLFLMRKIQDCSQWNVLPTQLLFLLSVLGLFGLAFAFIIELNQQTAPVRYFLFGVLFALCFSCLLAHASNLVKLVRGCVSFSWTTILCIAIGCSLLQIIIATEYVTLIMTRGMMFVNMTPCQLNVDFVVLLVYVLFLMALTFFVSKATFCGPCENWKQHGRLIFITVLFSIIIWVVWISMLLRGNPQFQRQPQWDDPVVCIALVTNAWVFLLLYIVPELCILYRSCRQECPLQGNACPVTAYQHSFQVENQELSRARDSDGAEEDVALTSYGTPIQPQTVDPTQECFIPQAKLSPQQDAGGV
T1 sequence (P16473 21-764): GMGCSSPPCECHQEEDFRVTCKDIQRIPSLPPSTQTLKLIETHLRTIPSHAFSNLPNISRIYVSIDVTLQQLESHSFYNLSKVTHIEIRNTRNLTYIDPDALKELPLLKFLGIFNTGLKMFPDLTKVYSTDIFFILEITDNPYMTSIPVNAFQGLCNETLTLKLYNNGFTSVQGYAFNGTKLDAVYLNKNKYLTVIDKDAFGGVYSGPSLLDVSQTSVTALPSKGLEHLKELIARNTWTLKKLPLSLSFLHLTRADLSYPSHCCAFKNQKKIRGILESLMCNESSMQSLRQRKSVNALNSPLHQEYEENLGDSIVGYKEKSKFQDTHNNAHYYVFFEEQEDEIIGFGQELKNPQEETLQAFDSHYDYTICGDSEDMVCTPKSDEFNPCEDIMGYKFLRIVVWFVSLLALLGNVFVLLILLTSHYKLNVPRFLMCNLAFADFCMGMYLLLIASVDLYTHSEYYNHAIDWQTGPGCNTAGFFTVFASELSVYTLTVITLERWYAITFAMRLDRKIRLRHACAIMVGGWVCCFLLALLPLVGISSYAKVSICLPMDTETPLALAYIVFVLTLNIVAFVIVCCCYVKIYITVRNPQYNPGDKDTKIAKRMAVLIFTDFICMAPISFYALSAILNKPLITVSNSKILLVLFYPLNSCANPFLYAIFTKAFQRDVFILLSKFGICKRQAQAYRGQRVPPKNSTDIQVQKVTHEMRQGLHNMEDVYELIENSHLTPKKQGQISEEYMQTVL
Chain of 348 GPCRs (Homo sapiens, UniProt P41143) (P41143 whole entry): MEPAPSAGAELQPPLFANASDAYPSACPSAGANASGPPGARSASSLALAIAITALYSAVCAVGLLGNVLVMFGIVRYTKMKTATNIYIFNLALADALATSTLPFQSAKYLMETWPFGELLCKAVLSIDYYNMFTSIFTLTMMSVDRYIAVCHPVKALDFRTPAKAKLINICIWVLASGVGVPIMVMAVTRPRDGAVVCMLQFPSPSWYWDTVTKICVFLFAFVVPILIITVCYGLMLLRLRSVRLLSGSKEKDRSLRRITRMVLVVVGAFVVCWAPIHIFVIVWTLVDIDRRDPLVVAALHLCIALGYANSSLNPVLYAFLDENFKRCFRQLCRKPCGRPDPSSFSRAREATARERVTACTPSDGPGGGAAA

| Structure (SMILES) | activation at 10 µM (348 GPCRs [1]; [9]) [%] | % GPCR activation compared to TPA (348 GPCRs [2]) [%] | activation at 100 µM (348 GPCRs [3]; [10]) [%] | activation at 100 µM (348 GPCRs [4]) [%] | activation at 10 µM (348 GPCRs [5]; [11]) [%] | activation at 100 µM (348 GPCRs [6]; [12]) [%] | activation at 10 µM (348 GPCRs [7]; [13]) [%] | activation at 10 µM (348 GPCRs [8]; [14]) [%] | activation at 100 µM (348 GPCRs [5]; GPCR GPR12 (G protein-coupled receptor 12), 100μM, read-out: % GPCR activation compared to TPA) [%] | activation at 10 µM (348 GPCRs [1]; [15]) [%] | activation at 100 µM (348 GPCRs [3]; [16]) [%] | activation at 10 µM (348 GPCRs [5]; [17]) [%] | activation at 100 µM (348 GPCRs [6]; [18]) [%] | activation at 10 µM (348 GPCRs [7]; [19]) [%] | activation at 10 µM (348 GPCRs [8]; [20]) [%] |
| --- | --- | --- | --- | --- | --- | --- | --- | --- | --- | --- | --- | --- | --- | --- | --- |
| N#C[C@@]1(c2ccc3c(N)ncnn23)O[C@H](CO)[C@@H](O)[C@H]1O [GS441524] | -1.39 | 1.985 | 2.25 | -2.68 | 4.27 | 1.25 | -1.43 | -1.93 |  |  |  |  |  |  |  |
| CCC(CC)COC(=O)[C@H](C)N[P@](=O)(OC[C@H]1O[C@@](C#N)(c2ccc3c(N)ncnn23)[C@H](O)[C@@H]1O)Oc1ccccc1 [remdesivir] |  | 3.551 |  | -3.05 |  |  |  |  |  | -3.29 | 3.03 | 5.35 | 2.23 | -1.92 | -0.473 |
| CC(C)OC(=O)[C@H](C)N[P@](=O)(OC[C@H]1O[C@@H](n2ccc(=O)[nH]c2=O)[C@](C)(F)[C@@H]1O)Oc1ccccc1 [sofosbuvir] |  | -2.192 |  | -2.64 |  |  |  |  |  | -0.338 | -0.187 | -0.471 | 2.02 | 0.0873 | 0.492 |

Further lines, with some results ahead:

| activation at 10 µM (348 GPCRs [1]; [9]) [%] | % GPCR activation compared to TPA (348 GPCRs [2]) [%] | activation at 100 µM (348 GPCRs [3]; [10]) [%] | activation at 100 µM (348 GPCRs [4]) [%] | activation at 10 µM (348 GPCRs [5]; [11]) [%] | activation at 100 µM (348 GPCRs [6]; [12]) [%] | activation at 10 µM (348 GPCRs [7]; [13]) [%] | activation at 10 µM (348 GPCRs [8]; [14]) [%] | activation at 100 µM (348 GPCRs [5]; GPCR GPR12 (G protein-coupled receptor 12), 100μM, read-out: % GPCR activation compared to TPA) [%] | Structure (SMILES) | activation at 10 µM (348 GPCRs [1]; [15]) [%] | activation at 100 µM (348 GPCRs [3]; [16]) [%] | activation at 10 µM (348 GPCRs [5]; [17]) [%] | activation at 100 µM (348 GPCRs [6]; [18]) [%] | activation at 10 µM (348 GPCRs [7]; [19]) [%] | activation at 10 µM (348 GPCRs [8]; [20]) [%] |
| --- | --- | --- | --- | --- | --- | --- | --- | --- | --- | --- | --- | --- | --- | --- | --- |
| -1.11 | 1.399 | 3.96 | -3.28 |  | 3.61 | -0.836 | -2.09 | 3.7 | NC(=O)c1nc(F)cnc1O [favipiravir, 6-fluoro-3-hydroxy-2-pyrazinecarboxamide] |  |  |  |  |  |  |
| -0.502 | -2.923 | 0.404 | -1.93 | 0.357 | 0.229 | -2.19 | -0.168 |  | CC(C)C(=O)OC[C@H]1O[C@@H](n2ccc(NO)nc2=O)[C@H](O)[C@@H]1O [molnupiravir] |  |  |  |  |  |  |
